Measurements taken from US8247400B2, “Cephem compounds useful for the treatment of bacterial infections” (priority 2009, dated 2012).
Where “and” joins values, the source holds several entries; their conditions need not be identical. Equal entries are not always repeated.

Columns and labels:
Escherichia coli = test: Agar diffusion antibacterial activity; assay type: cell-based; conditions: for Zone of Inhibition (mm) (average of 3 plates): Compound A approx. 22 μg/disk, Gentamicin 10 mcg per disk, 30-35° C., 2 days
Experimental: (§1) The antibiotic activity of Compound A (as the hydrochloride salt) was tested by Agar Diffusion against the following bacterial strains: Staphylococcus aureus, Salmonella typhimurium, Escherichia coli and Pseudomonas aureus. The antibiotic activity of Compound A was compared to that observed for the antibiotic gentamicin (positive control antibiotic). 0.85% saline solution was used as a negative control. The protocol is provided below. A solution containing Compound A hydrochloride, 20 ug per disk, was added to BBL™ Sensi-Disc™. Fifteen Petri dish filled with an agar medium were prepared a day before their use. These were utilized for testing of 5 microorganisms (4 bacterial species including Staphylococcus aureus, Salmonella typhimurium, Pseudomonas aeruginosa, and Escherichia coli, and one fungus (Candida albicans). Triplicate plates were then streaked with each specific microorganism. Twelve plates to be utilized for antibacterial testing were applied with positive control and negative control discs. Positive control discs are impregnated with gentamycin and are available from Becton, Dickinson and Co (ready to be used cartridges, “BBL™ Sensi-Disc™ Antimicrobial Susceptibility Test Discs”). Negative control discs were prepared by soaking dry disks with normal saline solution. These discs were applied by means of a BBL™ dispenser, using aseptic precautions. The remaining (three) plates to be utilized for antifungal properties were also applied with positive and negative controls; however, in this case positive control discs were impregnated with nystatin (available as BBL™ Taxo™ Nystatin Discs Cartridge from BD & Co). Fifteen dry discs (identical to those of positive and negative control discs but with unique identification print on one side, “NY”) were soaked with a solution of Compound A hydrochloride for about 5 minutes. The discs were then carefully transferred (using a sterile forceps) to a sterile empty Petri dish to decant off any excess test solution. Then one disc was applied to each of fifteen plates that were previously applied with positive and negative controls. The approximate loading of compound A was 22 μg/disk. Triplicate plates for each microorganism were assembled together and properly labeled prior to incubation. Plates for antibacterial testing were incubated at 30-35° C. (for 2 days) while for antifungal testing plates were incubated at 24° C. Plates were read for zones of inhibition using Vernier calipers.

[1] = Agar diffusion antibacterial activity; assay type: cell-based; conditions: Pseudomonas aureus; for Zone of Inhibition (mm) (average of 3 plates): Compound A approx. 22 μg/disk, Gentamicin 10 mcg per disk, 30-35° C., 2 days
Experimental: as §1

Salmonella typhimurium = test: Agar diffusion antibacterial activity; assay type: cell-based; conditions: for Zone of Inhibition (mm) (average of 3 plates): Compound A approx. 22 μg/disk, Gentamicin 10 mcg per disk, 30-35° C., 2 days
Experimental: as §1

Staphylococcus aureus = test: Agar diffusion antibacterial activity; assay type: cell-based; conditions: for Zone of Inhibition (mm) (average of 3 plates): Compound A approx. 22 μg/disk, Gentamicin 10 mcg per disk, 30-35° C., 2 days
Experimental: as §1

[2] = Solubility of Compound A in solvent mixtures; assay type: physicochemical
[3] = pH solubility profile of Compound A in USP buffers at room temperature; assay type: physicochemical; conditions: for Approximate Solubility: room temperature
Experimental: Testing was conducted using a reciprocating platform shaker (Heidolph® Promax 1020).

rats (CD® strain) = test: Four-week intravenous toxicity study in rats; assay type: in vivo; conditions: 9 mg/kg/day, over a period of 28 days
Experimental: The potential toxicity of an intravenously administered formulation of Compound A (average concentration analysis=95.6%) was studied for four weeks in rats (CD® strain). The vehicle (L-arginine dissolved in saline, 21.7 mg/ml), control (saline solution) and test solutions were administered by an intravenous infusion in the cannulated femoral vein through a dosing port. The dose was administered once per day at approximately the same time (±2 hours) each day throughout the duration of the study. The dose volume was 10 ml/kg per day. All doses were administered using a syringe infusion pump set for the appropriate infusion rate to deliver the proper dose volume over the required infusion duration of 15 minutes. All animals across all groups were examined prior to exposure and all the main study survivors were examined again at the end of study. […] Detailed clinical examinations were made for each animal daily during treatment (approx 30 to 60 minutes post-dosing).

[4] = Room temperature stability of the 1.0 mg/ml parenteral dosage form with L-arginine (Table 10); assay type: physicochemical; conditions: for % Assay / pH: 1 mg/ml solution with L-arginine in normal saline (Table 10)
Experimental: An example of a dosage form containing 1.0 mg/ml of Compound A hydrochloride that is suitable for parenteral (e.g., IM or IV) administration is provided in Table 10. The L-arginine was dissolved in saline and the pH of the solution was adjusted to ˜8.0 using 0.05N HCl. Compound A was then added and the pH of the solution was adjusted to ˜7.40. The solution was then filtered through a 0.22 μm filter.

[5] = system: human peripheral blood lymphocytes (HPBL); test: In vitro mammalian chromosome aberration test; assay type: cell-based; conditions: vehicle DMSO, maximum concentration 5000 μg/ml
Description: [B] In Vitro Mammalian Chromosome Aberration Test
The purpose of this study was to evaluate the clastogenic potential of a test article based upon its ability to induce chromosome aberrations in human peripheral blood lymphocytes (HPBL).
Negative: Test Article Solvent (or Vehicle)
Positive: Mitomycin C (MMC, CAS number 50-07-7)
Cyclophosphamide (CP, CAS number 6055-19-2)

[6] = Room temperature stability of the 4.20 mg/ml Compound A dosage form (Table 8); assay type: physicochemical
Experimental: An example of a dosage form containing 4.20 mg/ml of Compound A that is suitable for parenteral (e.g., IM or IV) administration is provided in Table 8. The propylene glycol, PEG-300 and ethanol were added to a volumetric flask and mixed. The acetate buffer pH 5.0 (1M) was then added q.s to volume and the contents of the flask were mixed. Compound A was added to a separate clear dry volumetric flask. Approximately ⅓ of the total propylene glycol, PEG-300 and ethanol mixture was added and the resulting mixture was shaken vigorously for 2 minutes. The remainder of the mixture was then added to the flask to make up the volume. The contents were mixed by gentle shaking or by sonication until a clear solution was obtained. The solution was then filtered through a 0.22μ filter (Millex® GV) using a sterile disposable syringe or vial.

[7] = system: thymidine kinase locus of L5178Y mouse lymphoma cells; conditions: vehicle DMSO, maximum concentration 5000 μg/ml
Experimental: In vitro genotoxicity studies were conducted as a mouse lymphoma study and a chromosomal aberration test. The vehicle was DMSO and the maximum concentration to be tested was 5000 μg/ml for both studies.
In Vitro Mammalian Cell Gene Mutation Test
(L5178Y/TK^+/− Mouse Lymphoma Assay)
The purpose of this study was to evaluate the genotoxic potential of the test article based on quantitation of forward mutations at the thymidine kinase locus of L5178Y mouse lymphoma cells and the sizing of the resulting colonies.
Negative: Test article solvent (or vehicle)
Positive: Methyl methanesulfonate (MMS)
7,12-dimethylbenz(a)anthracene (DMBA)

[8] = versus Gentamicin (10 mcg per disk)
[9] = pH 7.0 (0.1 M Potassium Phosphate)
[10] = pH 9.0 (0.1 M Potassium phosphate)
[11] = 4.20 mg/ml Compound A in propylene glycol/ethanol/PEG-300/acetate buffer pH 5.0 (Table 8), batches 1-4

Compound: CCO/N=C(\C(=O)N[C@@H]1C(=O)N2C(C(=O)[O-])=C(Sc3nc(-c4cc[n+](C)cc4)cs3)CS[C@H]12)c1nsc(NC(C)=O)n1.Cl [Compound A hydrochloride, (6R,7R)-7-[[(2Z)-2-(ethoxyimino)-2-[5-(acetamido)-1,2,4-thiadiazol-3-yl]acetyl]amino]-3-[[4-(1-methylpyridini-1-ium-4-yl)-1,3-thiazol-2-yl]sulfanyl]-8-oxo-5-thia-1-azabicylo[4.2.0]oct-2-ene-2-carboxylate hydrochloride]
- Zone of Inhibition (mm) (average of 3 plates) (Escherichia coli): 23.82 mm
- antibacterial activity relative to Gentamicin (Escherichia coli; [8]): 118%
- antibacterial activity (in words) [1]: moderate activity
- Zone of Inhibition (mm) (average of 3 plates) [1]: 9.68 mm
- Zone of Inhibition (mm) (average of 3 plates) (Salmonella typhimurium): 21.12 mm
- antibacterial activity relative to Gentamicin (Salmonella typhimurium; [8]): 117%
- Zone of Inhibition (mm) (average of 3 plates) (Staphylococcus aureus): 36.71 mm
- antibacterial activity relative to Gentamicin (Staphylococcus aureus; [8]): 173%

Compound: CCO/N=C(\C(=O)N[C@@H]1C(=O)N2C(C(=O)[O-])=C(Sc3nc(-c4cc[n+](C)cc4)cs3)CS[C@H]12)c1nsc(NC(C)=O)n1 [Compound A, (6R,7R)-7-[[(2Z)-2-(ethoxyimino)-2-[5-(acetamido)-1,2,4-thiadiazol-3-yl]acetyl]amino]-3-[[4-(1-methylpyridinium-4-yl)-1,3-thiazol-2-yl]sulfanyl]-8-oxo-5-thia-1-azabicylo[4.2.0]oct-2ene-2-carboxylate]
- Approximate Solubility ([2]; 8% Propylene Glycol, 2% Ethanol, 2% PEG-300, 5% 1-Methyl-2-pyrrolidinone, 83% Acetate buffer pH 5 (1M)): 2000 µg/mL
- Approximate Solubility ([2]; 8% Propylene Glycol, 2% Ethanol, 2% PEG-300, 88% Acetate buffer pH 5 (1M)): 1800 µg/mL
- Approximate Solubility ([2]; 8% Propylene Glycol, 2% Ethanol, 5% Benzyl alcohol, 85% Acetate buffer pH 5 (1M) (first entry, r11)): 1500 µg/mL
- Approximate Solubility ([2]; 8% Propylene Glycol, 2% Ethanol, 5% Benzyl alcohol, 85% Acetate buffer pH 5 (1M) (second entry, r17)): 3500 µg/mL
- Approximate Solubility ([2]; 8% Propylene Glycol, 2% Ethanol, 90% Acetate buffer pH 5 (1M)): 1500 µg/mL
- Approximate Solubility ([2]; 8% Propylene Glycol, 2% PEG-300, 5% Benzyl alcohol, 85% Acetate buffer pH 5 (1M)): 4000 µg/mL
- Approximate Solubility ([2]; 8% Propylene Glycol, 9% PEG-300, 83% Acetate buffer pH 5 (1M)): 1100 µg/mL
- Approximate Solubility ([2]; 10% Sodium benzoate in Normal Saline, pH 6.5): 4200 µg/mL
- Approximate Solubility ([2]; 10% Sodium benzoate in water, pH 6.3): 4200 µg/mL
- Approximate Solubility ([2]; 40% Propylene Glycol, 2.5% Ethanol, 57.5% Acetate buffer pH 5): 4200 µg/mL
- Approximate Solubility ([2]; 60% Propylene Glycol, 2.5% Ethanol, 37.5% Acetate buffer pH 5): >25000 µg/mL
- Approximate Solubility ([2]; Dimethyl sulfoxide (DMSO)): 212000 µg/mL
- Approximate Solubility ([2]; Ethanol): 1500 µg/mL
- Approximate Solubility ([2]; Methanol): 400000 µg/mL
- Approximate Solubility ([2]; Sterile water for injection USP): 800 µg/mL
- Description ([3]; pH 1.0 (0.2 M KCl—HCl)): Solution
- Approximate Solubility ([3]; pH 1.0 (0.2 M KCl—HCl)): 500 µg/mL
- Description ([3]; pH 3.0 (0.1 M Sodium acetate)): Solution
- Approximate Solubility ([3]; pH 3.0 (0.1 M Sodium acetate)): 4700 µg/mL
- Description ([3]; pH 5.0 (0.05 M Sodium acetate)): Gel
- Approximate Solubility ([3]; pH 5.0 (0.05 M Sodium acetate)): 800 µg/mL
- Description ([3]; pH 5.0 (0.1 M Sodium acetate)): Gel
- Approximate Solubility ([3]; pH 5.0 (0.1 M Sodium acetate)): 400 µg/mL
- Description ([3]; pH 5.0 (0.5 M Sodium acetate)): Gel
- Approximate Solubility ([3]; pH 5.0 (0.5 M Sodium acetate)): 500 µg/mL
- Description [3, 9]: Gel
- Approximate Solubility [3, 9]: 400 µg/mL
- Description [3, 10]: Solution
- Approximate Solubility [3, 10]: 13300 µg/mL
- adverse clinical events (rats (CD® strain)): did not show any adverse clinical events
- % Assay ([4]; 2 hours): 95.3%
- pH ([4]; 2 hours): 7.34
- % Assay ([4]; 4 hours): 95.1%
- pH ([4]; 4 hours): 7.41
- % Assay ([4]; Initial): 95.7%
- pH ([4]; Initial): 7.35
- stability of the solution (in words) ([4]; solution containing 1 mg/ml of Compound A): stable
- genotoxicity result, chromosomal aberration study using human lymphocytes [5]: negative
- Initial Assay (%) [6, 11]: 99.2% and 101.3% and 100.5% and 98.5%
- Initial pH [6, 11]: 6.06 and 6.08 and 6.13
- Final Assay (%) ([6]; 4.20 mg/ml Compound A solution (Table 8), 3 hrs at RT, batch 4): 96.9 (3 hrs at RT) %
- Final Assay (%) ([6]; 4.20 mg/ml Compound A solution (Table 8), 5 hrs at RT, batches 2 and 3): 97.9 (5 hrs at RT) % and 95.6 (5 hrs at RT) %
- Final pH ([6]; 4.20 mg/ml Compound A solution (Table 8), batch 4, 3 hrs at RT): 5.99
- genotoxicity result, mouse lymphoma study [7]: negative

Compound: Gentamicin [reference compound]
- Zone of Inhibition (mm) (average of 3 plates) (Escherichia coli): 20.27 mm
- Zone of Inhibition (mm) (average of 3 plates) [1]: 20.17 mm
- Zone of Inhibition (mm) (average of 3 plates) (Salmonella typhimurium): 18.03 mm
- Zone of Inhibition (mm) (average of 3 plates) (Staphylococcus aureus): 21.27 mm
